Results: patent US8106031B2, “Hydrolytically-resistant boron-containing therapeutics and methods of use” (Anacor Pharmaceuticals, Inc., priority 2006, dated 2012)
In brackets after ≈: the same amount, converted by molar mass. Read-outs that look alike come from different tables or passages of the source.

Assays:
Trichophyton rubrum = experiment: MIC against T. rubrum (NCCLS broth dilution); assay type: cell-based; conditions: for MIC: Trichophyton rubrum, read-out: Minimum inhibitory concentration, T. rubrum
From the text: (§1) To determine the antifungal activity of these compounds we screened for their minimum inhibitory concentrations (MIC) against the major dermatophytes that cause onychomycosis, T. rubrum and T. mentagrophytes, and against the yeasts and molds C. albicans, C. neoformans and A. fumigatus to test for their broad spectrum activity. The antifungal agent ciclopirox, currently in use for the topical treatment of onychomycosis, was used as a reference.
(§2) All MIC testing against Trichophyton rubrum, Trichophyton mentagrophytes, Candida albicans, Cryptococcus neoformans and Aspergillus fumigatus were determined following the National Committee for Clinical Laboratory Standards (NCCLS) guidelines for antimicrobial testing of yeasts and filamentous fungi.^i,ii
(§3) Two-fold serial dilutions of the test compounds were prepared in 96-well plates. […] Pfaller M A, Chaturvedi V, Espinel-Ingroff A, Ghannoum M A, Gosey L L, Odds F C, Rex J H, Rinaldi M G, Sheehan D J, Walsh T J, Warnock D W. NCCLS publication M27-A2—Reference Method for Broth Dilution Antifungal Susceptibility Testing of Yeasts; Approved Standard—Second Edition. […] Pfaller M A, Chaturvedi V, Espinel-Ingroff A, Ghannoum M A, Gosey L L, Odds F C, Rex J H, Rinaldi M G, Sheehan D J, Walsh T J, Warnock D W. NCCLS publication M38-A—Reference Method for Broth Dilution Antifungal Susceptibility Testing of Filamentous Fungi; Approved Standard.

Aspergillus fumigatus = experiment: MIC against A. fumigatus (NCCLS broth dilution); assay type: cell-based; conditions: for MIC: Aspergillus fumigatus, read-out: Minimum inhibitory concentration, A. fumigatus
From the text: as §1, §2, §3

Cryptococcus neoformans = experiment: MIC against C. neoformans (NCCLS broth dilution); assay type: cell-based; conditions: for MIC: Cryptococcus neoformans, read-out: Minimum inhibitory concentration, C. neoformans
From the text: as §1, §2, §3

Candida albicans = experiment: MIC against C. albicans (NCCLS broth dilution); assay type: cell-based; conditions: for MIC: Candida albicans, read-out: Minimum inhibitory concentration, C. albicans
From the text: as §1, §2, §3

[1] = test system: T. rubrum, T. mentagrophytes, C. albicans, C. neoformans and A. fumigatus; experiment: MIC against the panel of fungi tested; assay type: cell-based; conditions: for fold less active than the corresponding oxaborole: 6-membered oxaborin vs 5-membered oxaborole (23a vs 9a, 23b vs 9b, 24 vs 19b); for fold increase in potency: 5-fluoro compound relative to its R^i = H analog (9b vs 9a, 10b vs 10a), strains tested
From the text: MIC, or minimum inhibitory concentration, is the point where compound stops more than 90% of cell growth relative to an untreated control.
as §1, §2
Briefly, compounds were dissolved in DMSO and diluted in sterile water to give a working stock. Two-fold serial dilutions of the test compounds were prepared in 96-well plates. The plates were inoculated with the fungal suspensions to give a final inoculum size of 0.5−2.5×10^3 cells/mL for yeasts or 0.4−5×10^4 CFU/mL for filamentous fungi and then incubated for 24-168 h at 35° C. […] Pfaller M A, Chaturvedi V, Espinel-Ingroff A, Ghannoum M A, Gosey L L, Odds F C, Rex J H, Rinaldi M G, Sheehan D J, Walsh T J, Warnock D W. NCCLS publication M27-A2—Reference Method for Broth Dilution Antifungal Susceptibility Testing of Yeasts; Approved Standard—Second Edition. Wayne, P A: NCCLS; 2002 (Vol. 22, No. 15). • ii. Pfaller M A, Chaturvedi V, Espinel-Ingroff A, Ghannoum M A, Gosey L L, Odds F C, Rex J H, Rinaldi M G, Sheehan D J, Walsh T J, Warnock D W. NCCLS publication M38-A—Reference Method for Broth Dilution Antifungal Susceptibility Testing of Filamentous Fungi; Approved Standard. Wayne, P A: NCCLS; 2002 (Vol. 22, No. 16).

[2] = test system: Trichophyton mentagrophytes; experiment: MIC against T. mentagrophytes (NCCLS broth dilution); assay type: cell-based; conditions: for MIC: Trichophyton mentagrophytes, read-out: Minimum inhibitory concentration, T. mentagrophytes
From the text: as §1, §2, §3

[3] = Penetration of the nail plate; assay type: in vitro ADME; conditions: result in words
LogP = assay type: physicochemical
From the text: (§4) Further discussion, and assays for testing log P, molecular weight and water solubility are described in U.S. patent application Ser. Nos. 11/357,687 and 11/505,591, which are incorporated herein by reference.

Plasma protein binding = assay type: in vitro ADME
Water solubility = assay type: physicochemical
From the text: as §4

[4] = Table 1, over 90% reduction of growth, 24-168 h at 35° C.
[5] = 24 h, Table 1, over 90% reduction of growth, 24-168 h at 35° C.

Molecule: 6-Fluoro-1-phenyl-1,2,3,4-tetrahydro-2,1-benzoxaborine [23a]
- Minimum inhibitory concentration, T. rubrum (Trichophyton rubrum; [4]): 8 µg/mL
- Minimum inhibitory concentration, A. fumigatus (Aspergillus fumigatus; [4]): 16 µg/mL
- Minimum inhibitory concentration, C. neoformans (Cryptococcus neoformans; [4]): 16 µg/mL
- Minimum inhibitory concentration, C. albicans (Candida albicans; [4]): 8 µg/mL
- fold less active than the corresponding oxaborole [1]: approximately 2 fold
- Minimum inhibitory concentration, T. mentagrophytes [2, 4]: 8 µg/mL

Molecule: c1ccc(B2OCc3ccccc32)cc1 [9a, 1,3-Dihydro-1-phenyl-2,1-benzoxaborole]
- Minimum inhibitory concentration, T. rubrum (Trichophyton rubrum; Table 2, 1-phenyl series (9)): 4 µg/mL (≈ 20.6 µM)
- MIC (Trichophyton rubrum; [4]): 4 µg/mL (≈ 20.6 µM)
- MIC (Aspergillus fumigatus; [4]): 4 µg/mL (≈ 20.6 µM)
- Minimum inhibitory concentration, A. fumigatus (Aspergillus fumigatus; Table 2, 1-phenyl series (9)): 4 µg/mL (≈ 20.6 µM)
- MIC (Cryptococcus neoformans; [4]): 8 µg/mL (≈ 41.2 µM)
- Minimum inhibitory concentration, C. neoformans (Cryptococcus neoformans; Table 2, 1-phenyl series (9)): 8 µg/mL (≈ 41.2 µM)
- MIC (Candida albicans; [4]): 4 µg/mL (≈ 20.6 µM)
- Minimum inhibitory concentration, C. albicans (Candida albicans; Table 2, 1-phenyl series (9)): 4 µg/mL (≈ 20.6 µM)
- MIC values, range over the strains tested ([1]; all five fungi): 4 to 8 µg/mL
- Minimum inhibitory concentration, T. mentagrophytes ([2]; Table 2, 1-phenyl series (9)): 4 µg/mL (≈ 20.6 µM)
- MIC [2, 4]: 4 µg/mL (≈ 20.6 µM)

Molecule: Fc1ccc2c(c1)COB2c1ccccc1 [9b, 1,3-Dihydro-5-fluoro-1-phenyl-2,1-benzoxaborole]
- Minimum inhibitory concentration, T. rubrum (Trichophyton rubrum; Table 2, 1-phenyl series (9)): 1 µg/mL (≈ 4.72 µM)
- MIC (Trichophyton rubrum; [4]): 1 µg/mL (≈ 4.72 µM)
- MIC (Aspergillus fumigatus; [4]): 2 µg/mL (≈ 9.43 µM)
- Minimum inhibitory concentration, A. fumigatus (Aspergillus fumigatus; Table 2, 1-phenyl series (9)): 2 µg/mL (≈ 9.43 µM)
- MIC (Cryptococcus neoformans; [4]): 2 µg/mL (≈ 9.43 µM)
- Minimum inhibitory concentration, C. neoformans (Cryptococcus neoformans; Table 2, 1-phenyl series (9)): 2 µg/mL (≈ 9.43 µM)
- MIC (Candida albicans; [4]): 0.5 µg/mL (≈ 2.36 µM)
- Minimum inhibitory concentration, C. albicans (Candida albicans; Table 2, 1-phenyl series (9)): 0.5 µg/mL (≈ 2.36 µM)
- fold increase in potency [1]: 2-8 fold
- melting point: 90 to 99 °C
- Minimum inhibitory concentration, T. mentagrophytes ([2]; Table 2, 1-phenyl series (9)): 2 µg/mL (≈ 9.43 µM)
- MIC [2, 4]: 2 µg/mL (≈ 9.43 µM)

Molecule: Fc1ccc2c(c1)COB2C=Cc1ccccc1 [10b, 1,3-Dihydro-5-fluoro-1-styryl-2,1-benzoxaborole]
- MIC (Trichophyton rubrum; [4]): ≤ 1 µg/mL
- MIC (Aspergillus fumigatus; [4]): 1 µg/mL (≈ 4.2 µM)
- MIC (Cryptococcus neoformans; [4]): 0.5 µg/mL (≈ 2.1 µM)
- MIC (Candida albicans; [4]): 0.5 µg/mL (≈ 2.1 µM)
- fold increase in potency [1]: 4-8 fold
- melting point: 84 to 86 °C
- MIC [2, 4]: 2 µg/mL (≈ 8.4 µM)

Molecule: CC1OB(O)c2ccc(F)cc21 (centres unmarked) [19c, 1,3-Dihydro-5-fluoro-1-hydroxy-3-methyl-2,1-benzoxaborolane]
- Minimum inhibitory concentration, T. rubrum (Trichophyton rubrum; [4]): 32 µg/mL (≈ 193 µM)
- Minimum inhibitory concentration, A. fumigatus (Aspergillus fumigatus; [4]): 16 µg/mL (≈ 96.4 µM)
- Minimum inhibitory concentration, C. neoformans (Cryptococcus neoformans; [4]): 32 µg/mL (≈ 193 µM)
- Minimum inhibitory concentration, C. albicans (Candida albicans; [4]): 16 µg/mL (≈ 96.4 µM)
- fold decrease in activity ([1]; 3-methyl compound relative to 19b): 8-32 fold
- Minimum inhibitory concentration, T. mentagrophytes [2, 4]: 16 µg/mL (≈ 96.4 µM)

Molecule: c1ccc(B2OCCc3ccccc32)cc1 [23b, 1-Phenyl-1,2,3,4-tetrahydro-2,1-benzoxaborine]
- MIC (Trichophyton rubrum; [5]): 8 µg/mL (≈ 38.4 µM)
- MIC (Aspergillus fumigatus; [5]): 8 µg/mL (≈ 38.4 µM)
- MIC (Cryptococcus neoformans; [5]): 8 µg/mL (≈ 38.4 µM)
- MIC (Candida albicans; [5]): 8 µg/mL (≈ 38.4 µM)
- fold less active than the corresponding oxaborole [1]: 4-16 fold
- MIC [2, 5]: 8 µg/mL (≈ 38.4 µM)

Molecule: Cc1cc(C2CCCCC2)n(O)c(=O)c1 [Ciclopirox, reference compound]
- MIC (Trichophyton rubrum; [4]): 0.5 µg/mL (≈ 2.41 µM)
- MIC (Aspergillus fumigatus; [4]): 1 µg/mL (≈ 4.82 µM)
- MIC (Cryptococcus neoformans; [4]): 0.5 µg/mL (≈ 2.41 µM)
- MIC (Candida albicans; [4]): 0.5 µg/mL (≈ 2.41 µM)
- penetration of the nail plate [3]: penetrates the nail plate poorly
- MIC [2, 4]: 0.5 µg/mL (≈ 2.41 µM)

Molecule: Fc1ccc2c(c1)COB2c1ccccc1 [Compound 3]
- logP (LogP; table of b228, read-out: eLogP): 3.55
- penetration of the nail plate [3]: penetrates the nail plate poorly

Molecule: Fc1ccc2c(c1)COB2c1cccnc1 [compound 15, 3-(1,3-Dihydro-5-fluoro-2,1-benzoxaborol-1-yl)pyridine]
- MIC (Trichophyton rubrum; [4]): 16 µg/mL (≈ 75.1 µM)
- MIC (Aspergillus fumigatus; [4]): 16 µg/mL (≈ 75.1 µM)
- MIC (Cryptococcus neoformans; [4]): 16 µg/mL (≈ 75.1 µM)
- MIC (Candida albicans; [4]): 4 µg/mL (≈ 18.8 µM)
- change in activity against C. albicans (Candida albicans; relative to 9b, in words): no change in activity
- fold decrease in activity against the dermatophytes ([1]; T. rubrum and T. mentagrophytes, relative to 9b): 16-64 fold
- fold reduction in activity against C. neoformans and A. fumigatus ([1]; relative to 9b): 4 fold
- melting point: 210 to 212 °C
- MIC [2, 4]: 32 µg/mL (≈ 150 µM)

Molecule: OB1OCCc2cc(F)ccc21 [compound 24, 6-Fluoro-1-hydroxy-1,2,3,4-tetrahydro-2,1-benzoxaborine]
- MIC (Trichophyton rubrum; [4]): 32 µg/mL (≈ 193 µM)
- MIC (Aspergillus fumigatus; [4]): 32 µg/mL (≈ 193 µM)
- MIC (Cryptococcus neoformans; [4]): > 64 µg/mL
- MIC (Candida albicans; [4]): 64 µg/mL (≈ 386 µM)
- fold less active than the corresponding oxaborole [1]: 32-256 fold
- MIC [2, 4]: 32 µg/mL (≈ 193 µM)

Molecule: OB1OCc2cc(F)ccc21 [drawing 88]
- fraction unbound (Plasma protein binding): 0.34
- logP (LogP; read-out: LogP): 1.9
- solubility (Water solubility): > 100 µg/mL

Molecule: OB1OCc2cc(Cl)ccc21 [drawing 89]
- fraction unbound (Plasma protein binding): 0.17
- logP (LogP; read-out: LogP): 2.3
- solubility (Water solubility): > 100 µg/mL
